Reference: ChEMBL document CHEMBL1641454, “6-Benzylamino 4-oxo-1,4-dihydro-1,8-naphthyridines and 4-oxo-1,4-dihydroquinolines as HIV integrase inhibitors” (Bioorg Med Chem Lett, 2011)

How the values were obtained:
[1] = system: Human immunodeficiency virus 1; assay: Antiviral activity against VSV-G protein pseudotyped HIV1 luciferase reporter virus in mixture of human HeLa/JC53 cells assessed as luminescence after 48 hrs; type: functional, organism-based; settings: Human immunodeficiency virus 1, Hela-JC53, 48 h
[2] = system: Human immunodeficiency virus 1; assay: Antiviral activity against VSV-G protein pseudotyped HIV1 luciferase reporter virus in mixture of human HeLa/JC53 cells assessed as luminescence after 48 hrs in presence of 40% human serum; type: functional, organism-based; settings: Human immunodeficiency virus 1, Hela-JC53, 48 h
[3] = Metabolic stability in human liver microsome assessed as compound remaining after 30 mins; type: ADME; settings: liver microsomes, read-out: Stability
[4] = Plasma clearance in rat at 2 mg/kg, iv; type: ADME, organism-based; parameters: dose 2 mg/kg, route intravenous
[5] = Volume of distribution in rat at 2 mg/kg, iv; type: ADME, organism-based; parameters: dose 2 mg/kg, route intravenous; settings: in vivo
[6] = Cmax in rat at 5 mg/kg, po; type: ADME, organism-based; parameters: dose 5 mg/kg, route oral; settings: in vivo
[7] = AUC in rat at 5 mg/kg, po; type: ADME, organism-based; parameters: dose 5 mg/kg, route oral; settings: plasma
[8] = Half life in rat at 5 mg/kg, po; type: ADME, organism-based; parameters: dose 5 mg/kg, route oral; settings: in vivo
[9] = Oral bioavailability in rat at 5 mg/kg; type: ADME, organism-based; settings: in vivo
[10] = Plasma clearance in Beagle dog at 1 mg/kg, iv; type: ADME, organism-based, Canis lupus familiaris; parameters: dose 1 mg/kg, route intravenous
[11] = Volume of distribution in Beagle dog at 1 mg/kg, iv; type: ADME, organism-based, Canis lupus familiaris; parameters: dose 1 mg/kg, route intravenous; settings: in vivo
[12] = Half life in Beagle dog at 1 mg/kg, iv; type: ADME, organism-based, Canis lupus familiaris; parameters: dose 1 mg/kg, route intravenous; settings: in vivo
[13] = Plasma clearance in rhesus monkey at 1 mg/kg, iv; type: ADME, organism-based, Macaca mulatta; parameters: dose 1 mg/kg, route intravenous
[14] = Volume of distribution in rhesus monkey at 1 mg/kg, iv; type: ADME, organism-based, Macaca mulatta; parameters: dose 1 mg/kg, route intravenous; settings: in vivo
[15] = Half life in rhesus monkey at 1 mg/kg, iv; type: ADME, organism-based, Macaca mulatta; parameters: dose 1 mg/kg, route intravenous; settings: in vivo

`COc1nc2c(cc1NCc1ccc(F)cc1)c(=O)c(C(=O)O)cn2[C@H](CO)C(C)(C)C` showed an EC50 [1] of 150 nM and an EC50 [2] of 385 nM.

Compound `CC(C)(C)[C@@H](CO)n1cc(C(=O)O)c(=O)c2cc(Cc3cccc(Cl)c3F)c(O)nc21` has a remaining at 0.5 h [3] of 87%, an EC50 [1] of 2.7 nM and an EC50 [2] of 199 nM.

`CC(C)(C)[C@@H](CO)n1cc(C(=O)O)c(=O)c2cc(Cc3cccc(Cl)c3F)c(N3CCOCC3)nc21` gave a remaining at 0.5 h [3] of 97%, a clearance [4] of 7 mL/min/kg and a Vd [5] of 4.02 L/kg. For the same compound, the Cmax [6] was 414 ng/mL, the AUC [7] was 2700 ng·h/mL and the half-life [8] was 2.6 h. It also gave a bioavailability [9] of 26%, a clearance [10] of 10 mL/min/kg and a Vd [11] of 1.03 L/kg. It also gave a half-life [12] of 2.6 h, a clearance [13] of 19.7 mL/min/kg and a Vd [14] of 3.06 L/kg. The half-life [15] was 8.1 h, the EC50 [1] was 9.9 nM and the EC50 [2] was 39 nM.

`COc1nc2c(cc1NCc1cccc(F)c1)c(=O)c(C(=O)O)cn2[C@H](CO)C(C)C` gave an EC50 [1] of 1460 nM and an EC50 [2] of 1590 nM.

`COc1nc(Cc2cccc(Cl)c2F)cc2c(=O)c(C(=O)O)cn([C@H](CO)C(C)C)c12` showed an EC50 [1] of 291 nM and an EC50 [2] of 1770 nM.

For `CC(C)[C@@H](CO)n1cc(C(=O)O)c(=O)c2nc(Cc3cccc(Cl)c3F)ccc21`, the EC50 [1] was > 2500 nM.

With `COc1nc2c(cc1NCc1ccc(F)cc1)c(=O)c(C(=O)O)cn2[C@H](CO)C(C)C` the remaining at 0.5 h [3] was 87%, the EC50 [1] was 98 nM and the EC50 [2] was 421 nM.

Compound `CC(C)[C@@H](CO)n1cc(C(=O)O)c(=O)c2cc(Cc3cccc(Cl)c3F)cnc21` has a remaining at 0.5 h [3] of 99%, an EC50 [1] of 65 nM and an EC50 [2] of 1940 nM.

`CCOc1nc2c(cc1Cc1cccc(Cl)c1F)c(=O)c(C(=O)O)cn2[C@H](CO)C(C)(C)C` showed a remaining at 0.5 h [3] of 84%, an EC50 [1] of 1.4 nM and an EC50 [2] of 19 nM.

In the case of `COc1nc2c(cc1Nc1cccc(Cl)c1F)c(=O)c(C(=O)O)cn2[C@H](CO)C(C)C`, the EC50 [1] is reported as > 2500 nM.

Compound `COc1nc2c(cc1Cc1cccc(Cl)c1F)c(=O)c(C(=O)O)cn2[C@H](CO)CC(C)C` has a remaining at 0.5 h [3] of 92%, an EC50 [1] of 5.9 nM and an EC50 [2] of 129 nM.

With `COc1nc2c(cc1Cc1cccc(Cl)c1F)c(=O)c(C(=O)O)cn2[C@@H](C)CO` the EC50 [1] was 177 nM and the EC50 [2] was 1050 nM.

Compound `COc1nc2c(cc1NCc1ccc(F)cc1F)c(=O)c(C(=O)O)cn2[C@H](CO)C(C)C` has a remaining at 0.5 h [3] of 87%, an EC50 [1] of 4.6 nM and an EC50 [2] of 139 nM.

Compound `CC(C)(C)[C@@H](CO)n1cc(C(=O)O)c(=O)c2cc(Cc3cccc(Cl)c3F)c(OCCO)nc21` has a remaining at 0.5 h [3] of 45%, an EC50 [1] of 0.9 nM and an EC50 [2] of 2.4 nM.

In the case of `COc1nc2c(cc1Nc1ccc(Cl)c(F)c1)c(=O)c(C(=O)O)cn2[C@H](CO)C(C)C`, the EC50 [1] is reported as > 2500 nM.

Compound `COc1cc2c(cc1Cc1cccc(Cl)c1F)c(=O)c(C(=O)O)cn2[C@H](CO)C(C)C` [ELVITEGRAVIR] has a remaining at 0.5 h [3] of 38%, a clearance [4] of 3.83 mL/min/kg and a Vd [5] of 2.74 L/kg. The Cmax [6] was 1140 ng/mL, the AUC [7] was 5630 ng·h/mL and the half-life [8] was 2.9 h. The bioavailability [9] was 26%, the clearance [10] was 10 mL/min/kg and the Vd [11] was 2.38 L/kg. For the same compound, the half-life [12] was 3.6 h, the clearance [13] was 7.17 mL/min/kg and the Vd [14] was 1.99 L/kg. The half-life [15] was 3.2 h, the EC50 [1] was 0.7 nM and the EC50 [2] was 36 nM.

Compound `CC[C@@H](CO)n1cc(C(=O)O)c(=O)c2cc(Cc3cccc(Cl)c3F)c(OC)nc21` has an EC50 [1] of 40 nM and an EC50 [2] of 307 nM.

Compound `CC(C)[C@@H](CO)n1cc(C(=O)O)c(=O)c2cc(Cc3cccc(Cl)c3F)ncc21` has a remaining at 0.5 h [3] of 100%, an EC50 [1] of 54 nM and an EC50 [2] of 425 nM.

For `COc1nc2c(cc1NCc1c(F)cc(F)cc1F)c(=O)c(C(=O)O)cn2[C@H](CO)C(C)(C)C`, the remaining at 0.5 h [3] was 75%, the clearance [4] was 5.83 mL/min/kg and the Vd [5] was 4.18 L/kg. It also gave a Cmax [6] of 666 ng/mL, an AUC [7] of 2890 ng·h/mL and a half-life [8] of 3.7 h. It also gave a bioavailability [9] of 23%, a clearance [10] of 15.5 mL/min/kg and a Vd [11] of 1.93 L/kg. The half-life [12] was 2 h, the clearance [13] was 44.2 mL/min/kg and the Vd [14] was 3.93 L/kg. For the same compound, the half-life [15] was 2.2 h, the EC50 [1] was 7.6 nM and the EC50 [2] was 42 nM.

`COc1nc2c(cc1Cc1cccc(Cl)c1F)c(=O)c(C(=O)O)cn2[C@H](CO)C(C)(C)C` gave a remaining at 0.5 h [3] of 82%, a clearance [4] of 2.67 mL/min/kg and a Vd [5] of 2.31 L/kg. The Cmax [6] was 1230 ng/mL, the AUC [7] was 8500 ng·h/mL and the half-life [8] was 2.9 h. The bioavailability [9] was 31%, the EC50 [1] was 8.6 nM and the EC50 [2] was 61 nM.

`COc1nc2c(cc1Cc1cccc(Cl)c1F)c(=O)c(C(=O)O)cn2[C@H](CO)C(C)C` showed a remaining at 0.5 h [3] of 100%, an EC50 [1] of 11 nM and an EC50 [2] of 136 nM.

In the case of `CCCC[C@@H](CO)n1cc(C(=O)O)c(=O)c2cc(Cc3cccc(Cl)c3F)c(OC)nc21`, the EC50 [1] is reported as 20 nM and the EC50 [2] is reported as 245 nM.

For `COc1nc2c(cc1Nc1ccc(F)cc1)c(=O)c(C(=O)O)cn2[C@H](CO)C(C)C`, the EC50 [1] was > 2500 nM.

With `CC(C)Oc1nc2c(cc1Cc1cccc(Cl)c1F)c(=O)c(C(=O)O)cn2[C@H](CO)C(C)(C)C` the EC50 [1] was 16 nM and the EC50 [2] was 195 nM.

Work on `COc1nc2c(cc1NCc1cccc(Cl)c1F)c(=O)c(C(=O)O)cn2[C@H](CO)C(C)C` yielded an EC50 [1] of 490 nM and an EC50 [2] of 2680 nM.

With `COc1nc2c(cc1NCc1c(F)cc(F)cc1F)c(=O)c(C(=O)O)cn2[C@H](CO)C(C)C` the remaining at 0.5 h [3] was 82%, the EC50 [1] was 1.4 nM and the EC50 [2] was 52 nM.

In the case of `CCC[C@@H](CO)n1cc(C(=O)O)c(=O)c2cc(Cc3cccc(Cl)c3F)c(OC)nc21`, the EC50 [1] is reported as 180 nM and the EC50 [2] is reported as 1020 nM.

Compound `COc1nc2c(cc1NCc1ccccc1F)c(=O)c(C(=O)O)cn2[C@H](CO)C(C)C` has a remaining at 0.5 h [3] of 97%, an EC50 [1] of 81 nM and an EC50 [2] of 283 nM.
